According to US10136645B2, “Antimicrobial composition” (MicroBio Solutions Inc., priority 2015, dated 2018):

Assays:
[1] = system: B. subtilis spore; assay: Spore germination inhibition in TSB with low concentration solution; assay type: cell-based, Bacillus subtilis; conditions: low concentration solution (1:200 dilution); 30° C., 72 hours, visible growth
Procedure: The spore contaminated media culture was then incubated at 30° C. for 72 hours for detect the germination of the spore by the presence of a visually detectable growth. Three replicates were completed per treatment.

[2] = system: Bacillus subtilis (ATCC#19659) spores; assay: Sporicidal activity, quantitative suspension test EN 13704:2002; assay type: cell-based
Procedure: The sporicidal activity of a given product is defined by its capacity to reduce at least by 3 log (cfu/ml) the amount of Bacillus subtilis bacterial spores in suspension, in the conditions established in the method.
The test organism in the form of a test suspension was prepared containing endospores from Bacillus subtilis (ATCC#19659). The endospores were specifically prepared from a culture grown on Nutrient agar, to which additional sporulation enhancements were added. Plates were harvested with sterile water and endospores were purified by repeated centrifugations and resuspensions in water. The final wash was in 70% w/w ethanol for 30 minutes, to ensure the death of all vegetative bacteria.

[3] = system: E. coli; assay: Minimal bactericidal time (MBT) at different contact times; assay type: cell-based; conditions: 1000 active ppm H2O2 alone
Procedure: (§1) The antimicrobial effectiveness of the compositions of the present invention was tested. In this experiment, the test organism was E. coli and the final bacterial concentrations was 10^6 to 10^7 cfu/ml. Inoculum was contacted with either the combinations of LAE/H2O2 or individual, at different active concentration levels for a contact time of 30 seconds or more. The aliquots of this contaminated solution is used for determinate the minimal bactericidal concentration (MBC) for kill bacteria in the aliquots at 30 sec. contact time. Table 1 summarizes the efficacy of each biocide and their blends, and the Synergy index of each combination. In the same condition the minimal bactericidal time (MBT) was also evaluate with a combination of LAE:H2O2 (1:10) at different contact time. The table 2 summarizes the minimal bactericidal time for each biocide and a blend.

[4] = system: E. coli on raw chicken piece; assay: Efficacy and residual growth inhibition on inoculated raw chicken pieces; assay type: cell-based
Description: In the following example it is shown the residual effect of a combination of LAE/H2O2 compared with peracetic acid (PAA). The peracetic acid is often used in the food industry to sanitize food (fruit, vegetables, meat and poultry). The peracetic acid has a strong odor, is highly reactive and unstable when diluted and its use is limited to 80 ppm on food in the majority of countries worldwide regulation (e.g. US-FDA regulation 21CFR). For this example a solution of 200 ppm of lauric arginate with 1000 ppm of hydrogen peroxide is prepared and acidified to pH 2.5 using citric acid. The peracetic acid used is provided by Sigma-Aldrich.
Raw chicken pieces of the same size and weight are first soaked in an inoculating solution containing E. coli and incubated 30 minutes at 30° C. to allow the adhesion of bacteria on the surfaces of the sample. All samples are then soaked in a disinfectant solution (LAE/H2O2 or PAA) or a control (water) for a period of 30 seconds followed by a drying period drip for 2 minutes. Three replicates were completed per treatment. After the treatment, the samples were submerged in a neutralizing growth medium (D/E Neutralizing Broth) to analyze the populations of E. coli after the treatment or stored at room temperature in a sterile bags 24 hours before analyzed for populations of E. coli.

[5] = system: E. coli; assay: Minimal bactericidal concentration (MBC) at 30 sec. contact time; assay type: cell-based; conditions: alone or in blend, 10^6 to 10^7 cfu/ml
Procedure: as §1

[6] = animal toxicological studies; cited from earlier work

For `OO` [Example H2O2, hydrogen peroxide], the “Spore germination inhibition activity” value [1] was “No inhibition”, the “Average Log 10 cfu/ml reduction after 10 minutes contact time” value ([2]; high concentration treatment solution (10% H2O2)) was >3 Log 10 cfu/ml and the MBT [3] was >5 min.
In the case of `CC(=O)OO` [PAA, peracetic acid], the “Average Log10 cfu/sample 2 min. after treatment” value ([4]; 30 seconds soak, 2 min drip drying, LAE/H2O2 200/1000 ppm pH 2.5) is reported as 0.56 Log10 cfu/sample, the “Log10 reduction vs control 2 min. after treatment” value ([4]; 30 seconds soak, LAE/H2O2 200/1000 ppm pH 2.5, PAA 80 ppm) is reported as 3.81 Log10 and the “Average Log10 cfu/sample 24 hours after treatment” value ([4]; stored 24 hours at room temperature, LAE/H2O2 200/1000 ppm, PAA 80 ppm) is reported as 2.51 Log10 cfu/sample.
In the case of `CCCCCCCCCCCC(=O)N[C@@H](CCCN=C(N)N)C(=O)OCC` [LAE, Lauric arginate ethyl ester], the “MBC (active ppm) H2O2” value ([5]; H2O2 concentration for complete kill) is reported as 5000 active ppm, the “MBC (active ppm) LAE” value ([5]; LAE concentration for complete kill) is reported as >350 active ppm and the sporicidal activity ([2]; LAE alone, result not shown) is reported as “no significant difference with the control”. For the same compound, the “systemic No Observable Adverse Effect Levels (NOAEL)” value [6] was 15,000 mg/L.
